In a melting point compilation (Tetko et al.; mined from patent text by program, amines drawn as free bases though some values may be those of a salt):

melting point [°C]	SMILES
110	CC(C)(C)c1cccc(S(=O)(=O)n2c(C(O)c3ccc(C(=O)O)cc3)cc3cc(C(F)(F)F)ccc32)c1 (racemic)
229 to 230	O=C(O)CCC(=O)c1ccc(NC(=O)C2CC2)cc1
154 to 155	CCOC(=O)CC1SC(c2cc(C(C)(C)C)c(O)c(C(C)(C)C)c2)N(CCCBr)C1=O (stereo unspecified)
208 to 210	COc1ccc(Nc2cccc3c2C(=O)N(C2CCC(=O)NC2=O)C3=O)c(OC)c1 (stereo unspecified)
82 to 84	COc1ccc2c(c1)CN(CCc1ccc(N)cc1)CC2
174	O=C(N[C@H]1CC[C@H](CCN2CCN(c3nccc4c3CCO4)CC2)CC1)C1(O)CC1
63 to 66	Cc1c(Cl)cccc1NCc1ccccc1Cl
176 to 177	CON1CCC2(CC1)NC(=O)C(c1cc(C)ccc1C)=C2O
65 to 66	CCOCCN(SC(Cl)(Cl)Cl)C(=N)C(Cl)(Cl)Cl
248 to 249	Cc1cc2nc(C(=O)NC(Cc3ccc(OCc4ccccc4)cc3)C(=O)O)cn2cc1-c1ccc(Cl)cc1 (stereo unspecified)
249 to 250	CC(C)Cn1c(=O)n(C)c(=O)c2cnc(N)nc21
126 to 127	OCc1ccc(N2CCN(Cc3ccc4ccccc4n3)CC2)cc1
69 to 71	CCOC(=O)Cc1sc(Sc2cc(C(=O)OCC)nc(SC)n2)nc1C
131 to 132	CCOC(=O)CCCCn1c(=O)[nH]c2ccc(F)cc2c1=O
56 to 57	CCCCCCc1ccc(C=CC(=O)c2ccc(OCC=C(C)C)cc2OCC(=O)OCC)cc1
161 to 163	Oc1ccc(N2CCN(c3nc4ccccc4o3)CC2)cc1
81 to 83	COC(=O)CS(=O)(=O)c1ccc(OC)c(OC)c1
257 to 259	Cc1ccc(Cl)c(Nc2ccccc2-c2n[nH]c(=S)o2)c1Cl
64 to 65	CC(=O)N(Cc1cccnc1)c1ccc(Cl)cc1
160 to 161	CCCC1=C(C(=O)O)C(CC)n2ncc(C(=O)OCC)c2N1 (stereo unspecified)
88 to 90	CCN1CCCN(c2c(C)cccc2Cl)C1=S
186 to 187	Cc1c(C(O)C(C)(C)C)cc(I)[nH]c1=O (stereo unspecified)
112	CN(C(=O)C1CCn2cccc21)c1ccccc1 (stereo unspecified)

melting point [°C]	SMILES
155 to 156	O=C(NC1CCN(CCCC(O)c2ccccc2)CC1)c1ccccc1 (stereo unspecified)
123	CS(=O)(=O)Nc1cc(C=C2c3ccccc3CCc3ccccc32)ccc1O
247 to 248	CC(=O)Oc1ccc2c(c1)CCC1C3CCC(=O)C3(C)CC(=O)C21O (stereo unspecified)
140 to 145	CC(C)(C)CNc1cc(N2CCNCC2)nc(N2CCCC2)n1
> 260	O=C(Nc1ccc2[nH]c(=O)[nH]c2c1)C(=O)N1CCC(Cc2ccccc2)CC1
216 to 221	COc1c(F)c(F)c([N+](=O)[O-])c2c(=O)c(C(=O)O)cn(C3CC3)c12
228 to 230	O=C1CCC(N2Cc3c(CNC(=O)c4ccccc4)cccc3C2=O)C(=O)N1 (stereo unspecified)
157 to 158	CCOc1cc(OCC(=O)OCc2ccccc2)cc2c1C(=O)N(COC(=O)c1c(Cl)cccc1Cl)S2(=O)=O
132 to 133	CCOC(=O)N1CCN(c2nc(NC(C)=O)ccc2F)CC1
> 350	O=C1c2cccc3c4c(cc(c23)C(=O)N1O)OCOC4
97 to 98	CCCOc1cc(CCCOc2c(CC(=O)O)cccc2OC)n(Cc2ccc3ccccc3n2)n1
72 to 73	CN(CC(=O)O)C(=S)c1ccc(Cl)cc1
167 to 168	CN1CC(c2cc(CCc3ccc(F)cc3)ccn2)=C(O)C1=O
56 to 67	C=CCN1CC(OC(=O)c2ccccc2)CC1=O (stereo unspecified)
85.5 to 88	C=C(C)c1cnn(-c2ccnc3cc(Cl)ccc23)c1
198 to 199	N#Cc1ccc2c(c1)C1(COc3cc4c(cc31)OCCO4)C(=O)N2Cc1ccccn1 (stereo unspecified)
170	Cc1cnc2c(S(=O)(=O)N[C@@H](CCCc3cn(C(c4ccccc4)(c4ccccc4)c4ccccc4)cn3)C(=O)O)cccc2c1
100 to 101	CCOC(=O)C1=CCCCC1S(=O)(=O)Nn1cccc1C (stereo unspecified)
154 to 155	COC(=O)C1=C(C)NC(C)=C(C(=O)OCOC(=O)C(C)(C)C)C1c1cccc(Cl)c1Cl (single isomer, unassigned; (+))
121 to 131	C=CCn1c(Oc2cnn(-c3c(Cl)cc(C(F)(F)F)cc3Cl)n2)nc(C#N)c1C#N
198 to 199	O=Cc1scc2c3ccccc3c3ccccc3c12
55 to 58	COC(=O)CC1CCCC2CC(=O)N(OCC(=O)C(CC(=O)O)NC(=O)OCc3ccccc3)C12 (stereo unspecified)
117 to 120	CSCC(C)(C)c1nnc(N)s1

melting point [°C]	SMILES
101 to 120	CN1CCCCC1CCc1ccccc1NC(=O)c1ccc(C(C)(C)C)cc1 (stereo unspecified)
154 to 155	CCCCCCN(Cc1cccnc1)C(Nc1ccc(OC)cc1OC)=C1C(=O)OC(C)(C)OC1=O
128 to 129	Nc1ncc(C#Cc2ccccc2)c(NCCOCCO)n1
218 to 221	O=C(NCc1c[nH]c(=S)n1[C@H]1CCc2c(F)cc(F)cc2C1)c1cccnc1
283 to 284	CN1C(C(=O)Nc2cncc(Cl)n2)=C(O)c2cc(Cl)ccc2S1(=O)=O
39 to 41	Cc1c(Oc2ccccc2)cccc1Oc1ccccc1
154	CC(=O)OC1CSC(Oc2ccc(C)nc2[N+](=O)[O-])C(OC(C)=O)C1OC(C)=O (stereo unspecified)
74 to 77	c1ccc(Oc2cnccc2N2CCNCC2)cc1
186 to 191	COc1cn(-c2cccc(Br)c2F)nc(-c2ccnn2-c2ccccc2)c1=O
160 to 162	COc1ccc(-c2nc3cccc(C(=O)NC4CC5CCCC(C4)N5C)c3o2)cc1 (stereo unspecified)
191 to 194	CCS(=O)(=O)CCC(=O)NNC(=O)N1Cc2ccccc2Oc2ccc(O)cc21
95 to 97	CC(C)(C)c1cc(C(=O)c2cccs2)cc(CN2CCCC2)c1O
123 to 125	CN(C)CCN/C(=C1/Sc2ccccc2C1=O)c1ccccc1
155 to 160	COc1cc2c(cc1OC)Sc1ccccc1C(Cl)C2 (stereo unspecified)
163 to 165	COc1ccc(C(=O)Nc2ccc(-c3ccc(-c4noc(C)n4)cc3C)cc2)cc1CCCN(C)C
62 to 70	CN(CC(O)C(Cc1ccccc1)NC(=O)OC(C)(C)C)CC(O)C(Cc1ccccc1)NC(=O)OC(C)(C)C (stereo unspecified)
82 to 83	COC(=O)c1cc(-c2nn(C)c(SC)c2C)c(F)cc1Cl
123 to 125	CCOC(=O)C(N=Nc1sc(C)c(C)c1C(=O)c1ccccc1)NC(=O)CCl (stereo unspecified)
204 to 205	CNc1nc(Br)cc(Sc2ccc([N+](=O)[O-])cc2)n1
114 to 115	COc1ccccc1CCSc1c(O)cc(-c2ccccc2)oc1=O
174	O=C(Nc1ccc2[nH]ncc2c1)c1ccccc1NCC1CCOCC1

SMILES	melting point [°C]
CCC1(CCCN=[N+]=[N-])C(=O)NC(=O)NC1=O	182 to 184
CN(C)Cc1cnc2n1-c1ccc(Cl)cc1C(c1ccccc1)=NC2	181 to 182
Cc1nsc(OCC(Cl)(Cl)Cl)c1N	58 to 60
O=C(OCCC1CCCCC1)c1ncn2c1[C@@H]1CCCN1C(=O)c1c(Cl)cccc1-2	131 to 132
